Measurements reported in ChEMBL document CHEMBL1781941, “Synthesis and antitumor activity of 5-[1-(3-(dimethylamino)propyl)-5-halogenated-2-oxoindolin-(3Z)-ylidenemethyl]-2,4-dimethyl-1H-pyrrole-3-carboxamides” (Bioorg Med Chem Lett, 2011).
pIC50: −log10 of the molar value.

Assays:
[1] = system: HL-60; experiment: Antitumor activity against human HL60 cells; type: functional, cell-based
[2] = system: HUVEC; experiment: Inhibition of VEGF-induced cell proliferation in HUVEC by MTT assay; type: functional, cell-based; details: Homo sapiens
[3] = system: A549; experiment: Antitumor activity against human A549 cells; type: functional, cell-based
[4] = system: K562; experiment: Antitumor activity against human K562 cells; type: functional, cell-based
[5] = system: HUVEC; experiment: Inhibition of bFGF-induced cell proliferation in HUVEC by MTT assay; type: functional, cell-based; details: Homo sapiens
[6] = system: IM-9; experiment: Antitumor activity against human IM9 cells; type: functional, cell-based
[7] = system: MDA-MB-231; experiment: Antitumor activity against human MDA-MB-231 cells; type: functional, cell-based
[8] = system: MDA-MB-231; experiment: Ratio of Sunitinib IC50 to compound IC50 for human MDA-MB-231 cells; type: functional
[9] = system: K562; experiment: Ratio of Sunitinib IC50 to compound IC50 for human K562 cells; type: functional
[10] = system: IM-9; experiment: Ratio of Sunitinib IC50 to compound IC50 for human IM9 cells; type: functional
[11] = system: A549; experiment: Ratio of Sunitinib IC50 to compound IC50 for human A549 cells; type: functional

| Structure (SMILES) | pIC50 [1] | pIC50 [2] | pIC50 [3] | pIC50 [4] | pIC50 [5] | pIC50 [6] | pIC50 [7] | Ratio IC50 [8] | Ratio IC50 [9] | Ratio IC50 [10] | Ratio IC50 [11] |
| --- | --- | --- | --- | --- | --- | --- | --- | --- | --- | --- | --- |
| Cc1[nH]c(/C=C2\C(=O)N(CCCN(C)C)c3ccc(Cl)cc32)c(C)c1C(=O)N1CCCC1 | 5.11 | 5.41 | 4.85 | 5.18 | 5.33 | 5.03 | 4.94 |  |  |  |  |
| Cc1[nH]c(/C=C2\C(=O)N(CCCN(C)C)c3ccc(F)cc32)c(C)c1C(=O)N(C)C | 4.83 | 5.28 | 4.60 | 4.87 | 4.70 | 4.75 | 4.72 |  |  |  |  |
| Cc1[nH]c(/C=C2\C(=O)N(CCCN(C)C)c3ccc(Cl)cc32)c(C)c1C(=O)N(C)C | 5.14 | 5.79 | 4.80 | 5.17 | 5.08 | 5.03 | 4.92 |  |  |  |  |
| CCN(CC)C(=O)c1c(C)[nH]c(/C=C2\C(=O)N(CCCN(C)C)c3ccc(F)cc32)c1C | 4.97 | 5.40 | 4.52 | 5.31 | 4.98 | 4.85 | 4.86 |  |  |  |  |
| CCN(CC)C(=O)c1c(C)[nH]c(/C=C2\C(=O)N(CCCN(C)C)c3ccc(Cl)cc32)c1C | 5.40 | 5.54 | 4.88 | 5.68 | 5.31 | 5.20 | 5.17 |  |  |  |  |
| Cc1[nH]c(/C=C2\C(=O)N(CCCN(C)C)c3ccc(F)cc32)c(C)c1C(=O)N1CCCC1 | 4.92 | 5.18 | 4.67 | 4.94 | 4.95 | 4.72 | 4.88 |  |  |  |  |
| Cc1[nH]c(/C=C2\C(=O)N(CCCN(C)C)c3ccc(F)cc32)c(C)c1C(=O)N1CCCCC1 | 5.36 | 5.39 | 4.73 | 5.39 | 5.28 | 5.32 | 4.94 |  |  |  |  |
| Cc1[nH]c(/C=C2\C(=O)N(CCCN(C)C)c3ccc(Cl)cc32)c(C)c1C(=O)N1CCCCC1 | 5.40 | 5.88 | 5.13 | 5.67 | 5.69 | 5.35 | 5.25 |  |  |  |  |
| CCN(CC)CCNC(=O)c1c(C)[nH]c(/C=C2\C(=O)N(CCCN(C)C)c3ccc(Cl)cc32)c1C.Cl.Cl.Cl | 5.97 | 5.57 | 5.51 | 6.28 | 5.51 | 6.33 | 5.64 | 2.1 | 4.6 | 2.1 | 2.1 |
| CCN(CC)CCNC(=O)c1c(C)[nH]c(/C=C2\C(=O)N(CCCN(C)C)c3ccc(F)cc32)c1C | 5.74 | 6.15 | 5.29 | 5.88 | 5.77 | 5.79 | 5.54 |  |  |  |  |
| Cc1[nH]c(/C=C2\C(=O)N(CCCN(C)C)c3ccc(Cl)cc32)c(C)c1C(=O)NCCN(C)C | 5.93 | 5.95 | 5.45 | 6.28 | 5.47 | 6.35 | 5.61 |  |  |  |  |
| Cc1[nH]c(/C=C2\C(=O)N(CCCN(C)C)c3ccc(Cl)cc32)c(C)c1C(=O)N1CCN(C)CC1 | 5.45 | 5.87 | 5.17 | 5.85 | 5.70 | 5.83 | 5.30 |  |  |  |  |
| CCN1CCN(C(=O)c2c(C)[nH]c(/C=C3\C(=O)N(CCCN(C)C)c4ccc(Cl)cc43)c2C)CC1 | 5.58 | 5.99 | 5.05 | 5.61 | 5.75 | 5.65 | 5.46 |  |  |  |  |
| Cc1[nH]c(/C=C2\C(=O)N(CCCN(C)C)c3ccc(F)cc32)c(C)c1C(=O)NCCN(C)C | 5.56 | 6.32 | 5.53 | 5.84 | 5.85 | 5.87 | 5.67 |  |  |  |  |
| Cc1[nH]c(/C=C2\C(=O)N(CCCN(C)C)c3ccc(F)cc32)c(C)c1C(=O)N1CCN(C)CC1 | 5.12 | 5.52 | 4.96 | 5.28 | 5.25 | 5.39 | 5.05 |  |  |  |  |
| CCN1CCN(C(=O)c2c(C)[nH]c(/C=C3\C(=O)N(CCCN(C)C)c4ccc(F)cc43)c2C)CC1 | 4.87 | 5.80 | 4.86 | 5.22 | 5.47 | 5.14 | 5.09 |  |  |  |  |
| CCN(CC)CCNC(=O)c1c(C)[nH]c(/C=C2\C(=O)Nc3ccc(F)cc32)c1C [SUNITINIB] | 5.45 | 5.56 | 5.18 | 5.62 | 5.39 | 5.87 | 5.35 |  |  |  |  |
